The subject of the test is hNEPT. Kind of test: C-peptide content (ELISA, normalised to DNA) of hNEPT. Format: cell-based, human. Here is the method: hNEPT culture: Human islets were isolated at the DRI's cGMP facility following methods already described54, and hNEPT samples (2-4 ml) were obtained as an isolation byproduct. The cells were washed and seeded on tissue culture-treated plates in FBS- and trypsin inhibitor-supplemented RPMI 1640 medium (Gibco-Life Technologies, Grand Island, N.Y.). After 48 h, floating cells were removed with fresh medium replacement. The following day, cultures were either treated with 100 ng/ml BMP-7 (ProSpec-Tany TechnoGene; Ness Ziona, Israel) or remained in the starting medium as controls. Cells were allowed to grow 4-5 days and then the serum-containing medium was replaced by serum-free Advanced RPMI 1640 (Gibco-Life Technologies, Grand Island, N.Y.). Four to five days later the cells were either subjected to static incubation to evaluate their ability to respond to changing glucose concentration or collected for further assessments (such as C-peptide content, immunohistochemistry or cellular composition) or transplantation.
Glucose-stimulated insulin release (GSIR) and total insulin determination: GSIR was performed in six-well plate cultures. BMP-7-treated samples and untreated controls were washed twice with DMEM medium containing 2.5 mM glucose (Low glucose medium or L-medium). Upon addition of 2 ml of the same medium, the cells were cultured for 1 h at 37° C. to bring their insulin secretion to baseline. After 2 more washes, 1 ml of L-medium was added and the cells were returned to the incubator for 1 h. At the end of incubation period, the medium was collected and the cells exposed for 1 h to 1 ml of 20 mM glucose DMEM medium (high glucose medium or H-medium). After the collection of the H-medium supernatant, the cells were washed three times with L-medium and cultured again in low glucose conditions for 1 h. As before, supernatant was collected at the end of the incubation period. The second low glucose incubation is necessary to confirm that the cells are responding to glucose concentration changes in a physiological manner and not dumping insulin. After the last incubation, the cells were collected, washed in PBS and lysed with 1 ml of T-Per (Thermo Scientific, Rockford, Ill.). The lysates and the supernatants from GSIR test were evaluated with ELISA for C-peptide content (Mercodia, Uppsala, Sweden) following manufacturer's instructions. DNA content of the lysates was used to normalize the results (Pico-Green dsDNA Assay Kit, Life Technologies-Molecular Probes, Grand Island, N.Y.).

The text below walks through data of US11466255B2, “Methods and compositions for converting non-endocrine pancreatic tissue into insulin-producing cells” (UNIVERSITY OF MIAMI, priority 2015, dated 2022).

For `c1cc(-c2cnn3cc(-c4ccc(OCCN5CCCCC5)cc4)cnc23)ccn1` [dorsomorphin, reference compound], for the setting “dorsomorphin added to BMP-7, n=4”, the “reduction of the BMP-7-mediated induction of C-peptide” value is reported as roughly 3 fold.

B1: BMP-4: member of the BMPs family of proteins that signals through ALK3 and ALK6; SEQ ID NO:3 (protein, listed as Homo sapiens)
chain: SPKHHSQRARKKNKNCRRHSLYVDFSDVGWNDWIVAPPGYQAFYCHGDCPFPLADHLNSTNHAIVQTLVNSVNSSIPKACCVPTELSAISMLYLDEYDKVVLKNYQEMVVEGCGCR
modifications: fragment of BMP-4
Consider B1, for which the “C-peptide production induction vs. t=0” value (BMP-4 vs BMP-7 comparison, n=6, P=0.43) was found to be 198±62.8 fold.
